The results in this text go back to the supplement of paper PMC11451515.

Each structure is given as a SMILES string.

Common to all, as to experiment: AUC of viability dose-response curve (% viability x log10 dose units); higher = less sensitive
Holding throughout (details): 48 h

Test [1] deals with P12-Ichikawa. The gist of the method:
(§1)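 Viability of medium-adapted leukemia cells was measured by CellTiter-Glo One luminescence after 48 h at 37°C with library compounds in DMSO. Doses were 11 threefold steps from 47 μM to 0.79 nM, in 1536-well plates at 500 or 1000 cells/well. Signals were normalised per plate to DMSO and cell-free wells and fitted with a four-parameter log-logistic model on log10 dose. Area under the curve was integrated by trapezoidal rule, with curves exceeding full viability scaled and failed quality-control curves removed.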

Test [2] deals with NOMO1. The gist of the method:
as §1

The subject of test [3] is SEM cells. The gist of the method:
as §1

[4] abbreviates: RPMI 5 mM glucose + 10% dialyzed FBS.

In the case of `CC(N[C@H]1C[C@@H]1c1ccccc1)c1ccc2c(c1)OCCO2` (stereo partly drawn), the “AUC of viability dose-response curve” value worked out at 458 in test [1] (HPLM + 10% dialyzed FBS); 469 in test [1] (RPMI 5 mM glucose + 10% FBS); 451 in test [1] (setting [4]); 434 in test [2] (HPLM + 10% dialyzed FBS); 470 in test [2] (RPMI 5 mM glucose + 10% FBS); 470 in test [2] (setting [4]). Besides, the entries for the “AUC of viability dose-response curve” value in test [3] (HPLM + 10% dialyzed FBS), in test [3] (RPMI 5 mM glucose + 10% FBS) and in test [3] (setting [4]) were 475, 467 and 471, respectively.

Turning to `CN1[C@@H]2CC(OC(=O)[C@@H](CO)c3ccccc3)C[C@H]1[C@H]1O[C@H]12` (stereo partly drawn), the “AUC of viability dose-response curve” value in test [1] (HPLM + 10% dialyzed FBS) came to 474; in test [1] (RPMI 5 mM glucose + 10% FBS), 469; in test [1] (setting [4]), 435; in test [2] (HPLM + 10% dialyzed FBS), 452; in test [2] (RPMI 5 mM glucose + 10% FBS), 417; in test [2] (setting [4]), 451. The “AUC of viability dose-response curve” value turned out to be 445 in test [3] (HPLM + 10% dialyzed FBS), 443 in test [3] (RPMI 5 mM glucose + 10% FBS) and 442 in test [3] (setting [4]).

With `CC1(C)Cc2c(-c3ccccc3)c(-c3ccc(Cl)cc3)c(CC(=O)O)n2C1`, the “AUC of viability dose-response curve” value in test [1] (HPLM + 10% dialyzed FBS) worked out at 444; in test [1] (RPMI 5 mM glucose + 10% FBS), 451; in test [1] (setting [4]) it was 466; in test [2] (HPLM + 10% dialyzed FBS), 454; in test [2] (RPMI 5 mM glucose + 10% FBS), 454; in test [2] (setting [4]) it was 458. Besides, the entries for the “AUC of viability dose-response curve” value in test [3] (HPLM + 10% dialyzed FBS), in test [3] (RPMI 5 mM glucose + 10% FBS) and in test [3] (setting [4]) were 451, 425 and 407, respectively.

On to `CC(C)C(C)/C=C/C(C)C1CCC2C3=CC=C4CC(O)CCC4(C)C3CCC21C` (stereo not drawn), for which the “AUC of viability dose-response curve” value in test [1] (HPLM + 10% dialyzed FBS) was 460; in test [1] (RPMI 5 mM glucose + 10% FBS), 468; in test [1] (setting [4]), 457; in test [2] (HPLM + 10% dialyzed FBS), 474; in test [2] (RPMI 5 mM glucose + 10% FBS) it was 426; in test [2] (setting [4]), 445. Besides, the “AUC of viability dose-response curve” value in test [3] (HPLM + 10% dialyzed FBS) came out at 383; in test [3] (RPMI 5 mM glucose + 10% FBS), 454; in test [3] (setting [4]), 458.

On to `CCC1(C)CC(=O)NC1=O` (stereo not drawn), for which the “AUC of viability dose-response curve” value in test [1] (HPLM + 10% dialyzed FBS) is 458; in test [1] (RPMI 5 mM glucose + 10% FBS) it was 459; in test [1] (setting [4]) it was 467; in test [2] (HPLM + 10% dialyzed FBS) it was 437; in test [2] (RPMI 5 mM glucose + 10% FBS), 421; in test [2] (setting [4]), 450. The “AUC of viability dose-response curve” value worked out at 465 in test [3] (HPLM + 10% dialyzed FBS), 462 in test [3] (RPMI 5 mM glucose + 10% FBS) and 460 in test [3] (setting [4]).

Consider `COc1cc2c(cc1-c1c(C)noc1C)ncc1[nH]c(=O)n([C@H](C)c3ccccn3)c12`, for which the “AUC of viability dose-response curve” value is 380 in test [1] (HPLM + 10% dialyzed FBS); 396 in test [1] (RPMI 5 mM glucose + 10% FBS); 393 in test [1] (setting [4]); 373 in test [2] (HPLM + 10% dialyzed FBS); 382 in test [2] (RPMI 5 mM glucose + 10% FBS); 382 in test [2] (setting [4]). The “AUC of viability dose-response curve” value in test [3] (HPLM + 10% dialyzed FBS) was found to be 336; in test [3] (RPMI 5 mM glucose + 10% FBS), 336; in test [3] (setting [4]), 323.

Turning to `FC(F)(F)c1ccc(/C=C/c2nc(COc3ccc(CCCCn4ccnn4)cc3)co2)cc1`, the “AUC of viability dose-response curve” value in test [1] (HPLM + 10% dialyzed FBS) was 338; in test [1] (RPMI 5 mM glucose + 10% FBS) it was 309; in test [1] (setting [4]), 362; in test [2] (HPLM + 10% dialyzed FBS), 360; in test [2] (RPMI 5 mM glucose + 10% FBS), 359; in test [2] (setting [4]), 381. Besides, the “AUC of viability dose-response curve” value in test [3] (HPLM + 10% dialyzed FBS) was found to be 445; in test [3] (RPMI 5 mM glucose + 10% FBS), 411; in test [3] (setting [4]), 374.

As to `CNC1CCC(N(Cc2cccc(-c3ccncc3)c2)C(=O)c2sc3ccccc3c2Cl)CC1` (stereo not drawn), the “AUC of viability dose-response curve” value in test [1] (HPLM + 10% dialyzed FBS) is 319; in test [1] (RPMI 5 mM glucose + 10% FBS) it was 326; in test [1] (setting [4]) it was 302; in test [2] (HPLM + 10% dialyzed FBS), 330; in test [2] (RPMI 5 mM glucose + 10% FBS) it was 326; in test [2] (setting [4]), 381. Further, the entries for the “AUC of viability dose-response curve” value in test [3] (HPLM + 10% dialyzed FBS), in test [3] (RPMI 5 mM glucose + 10% FBS) and in test [3] (setting [4]) were 310, 267 and 279, respectively.

As to `Cc1cc(OCCCc2c(C(=O)O)n(Cc3cccnc3)c3c(-c4c(COc5ccc(N6CCN([S+](C)(=O)[O-])CC6)cc5)nn(C)c4C)cccc23)cc(C)c1Cl`, the “AUC of viability dose-response curve” value amounted to 452 in test [1] (HPLM + 10% dialyzed FBS); 441 in test [1] (RPMI 5 mM glucose + 10% FBS); 446 in test [1] (setting [4]); 452 in test [2] (HPLM + 10% dialyzed FBS); 418 in test [2] (RPMI 5 mM glucose + 10% FBS); 443 in test [2] (setting [4]). The “AUC of viability dose-response curve” value came out at 441 in test [3] (HPLM + 10% dialyzed FBS), 441 in test [3] (RPMI 5 mM glucose + 10% FBS) and 439 in test [3] (setting [4]).

With `COc1cnc(N[S+](=O)([O-])c2ccc(N)cc2)nc1`, the “AUC of viability dose-response curve” value amounted to 449 in test [1] (HPLM + 10% dialyzed FBS); 459 in test [1] (RPMI 5 mM glucose + 10% FBS); 460 in test [1] (setting [4]); 445 in test [2] (HPLM + 10% dialyzed FBS); 457 in test [2] (RPMI 5 mM glucose + 10% FBS); 448 in test [2] (setting [4]). The “AUC of viability dose-response curve” value in test [3] (HPLM + 10% dialyzed FBS) came out at 428; in test [3] (RPMI 5 mM glucose + 10% FBS), 459; in test [3] (setting [4]), 443.

Consider `OC(=O)C1=CC=C(NC2=NC3=C(C\N=C(/C4=CC(=CC=C34)Cl)C5=C(F)C=CC=C5F)C=N2)C=C1`, for which the “AUC of viability dose-response curve” value was 344 in test [1] (HPLM + 10% dialyzed FBS); 345 in test [1] (RPMI 5 mM glucose + 10% FBS); 353 in test [1] (setting [4]); 394 in test [2] (HPLM + 10% dialyzed FBS); 343 in test [2] (RPMI 5 mM glucose + 10% FBS); 362 in test [2] (setting [4]). Also, the “AUC of viability dose-response curve” value came to 389 in test [3] (HPLM + 10% dialyzed FBS), 373 in test [3] (RPMI 5 mM glucose + 10% FBS) and 365 in test [3] (setting [4]).

With `COc1cccc2cc(-c3nc(C4CCC(C(=O)O)CC4)n4ncnc(N)c34)[nH]c12` (stereo not drawn), the “AUC of viability dose-response curve” value in test [1] (HPLM + 10% dialyzed FBS) is 292; in test [1] (RPMI 5 mM glucose + 10% FBS) it was 307; in test [1] (setting [4]), 308; in test [2] (HPLM + 10% dialyzed FBS), 338; in test [2] (RPMI 5 mM glucose + 10% FBS), 358; in test [2] (setting [4]), 359. The “AUC of viability dose-response curve” value turned out to be 315 in test [3] (HPLM + 10% dialyzed FBS), 327 in test [3] (RPMI 5 mM glucose + 10% FBS) and 329 in test [3] (setting [4]).
